In ChEMBL document CHEMBL3272187, “Synthesis of N-hydroxyacetaminophen, a postulated toxic metabolite of acetaminophen, and its phenolic sulfate conjugate” (J Med Chem, 1978):

Columns and labels:
Assay type in all cases: physicochemical
[1] = Aqueous stability of the compound in 100 mM HCl buffer assessed as half life at 2 mM at pH 1.5 at 37 degC by ferric chloride assay
[2] = Aqueous stability of the compound in 100 mM Na2HPO4 buffer assessed as half life at 2 mM at pH 8.5 at 37 degC by ferric chloride assay
[3] = Aqueous stability of the compound in 100 mM NaOH buffer at 2 mM at pH 12.7 at 37 degC by ferric chloride assay; details: pH 12.7, 2000 µM
[4] = Aqueous stability of the compound in 100 mM Na2HPO4 buffer assessed as half life at 2 mM at pH 6.6 at 37 degC by ferric chloride assay
[5] = Aqueous stability of the compound in 100 mM Na2HPO4 buffer assessed as half life at 2 mM at pH 7.0 at 37 degC by ferric chloride assay
[6] = Aqueous stability of the compound in 100 mM Na2HPO4 buffer assessed as half life at 2 mM at pH 7.2 at 37 degC by ferric chloride assay
[7] = Aqueous stability of the compound in 100 mM Na2HPO4 buffer assessed as half life at 2 mM at pH 8.0 at 37 degC by ferric chloride assay

half-life at 2000 µM [1] [h] | half-life at 2000 µM [2] [h] | Stability [3] | half-life at 2000 µM [4] [h] | half-life at 2000 µM [5] [h] | half-life at 2000 µM [6] [h] | half-life at 2000 µM [7] [min] | Compound
15.2 | 217 | Stable |  |  |  |  | CC(=O)N(O)c1ccc(OS(=O)(=O)[O-])cc1.[K+]
18.3 |  | Stable | 2.5 | 1.1 | 0.35 | 9.8 | CC(=O)N(O)c1ccc(O)cc1
